Experimental data reported in patent US11111245B2, “Derivatives of N-cycloalkyl/heterocycloalkyl-4-(imidazo[1,2-a]pyridine)pyrimidin-2-amine as therapeutic agents” (Aucentra Therapeutics Pty Ltd, priority 2017, dated 2021).

Columns and labels:
[1] = target: CDK9/T1 (Homo sapiens, UniProt P50750); assay: ADP Glo Kinase assay CDK9/T1; assay type: biochemical; settings: CDK9T1; read-out: CDK inhibition, Ki (μM) CDK9T1
Protocol: (§1) Eurofins Pharma Discovery or Reaction Biology Corporation Kinase Profiler services were used to measure inhibition of CDKs and other kinases by radiometric assay. Inhibition of CDK4/D1, CDK6/D3 and CDK9/T1 were also determined in-house using ADP Glo Kinase assays (Promega Corporation, Madison, USA). Briefly, the kinase reaction for CDK4/D1 and CDK6/D3 was performed with kinase reaction buffer ([…] Tris base pH 7.5, 20 mM MgCl2, 0.4 mM DTT), 0.1 mg/ml BSA and RB-CTF substrate (retinoblastoma protein 1 C-terminal fraction). For CDK9/CyclinT1, the kinase reaction was performed with standard assay buffer and Kinase Dilution Buffer and RBER-IRStide substrate. Serial dilutions of 1:3 were prepared for test compounds for 10 concentrations (from 10 μM to 0.5 nM). The kinase reactions were started by addition of ATP, incubated for 40 min at 37° C. and then stopped by adding 10 μL of ADP Glo reagent. After incubation at room temperature in the dark for 40 min, 20 μL of kinase detection reagent was added per well and incubated for 40 min. Luminescence was measured using an EnVision Multilabel plate reader (PerkinElmer, Buckinghamshire, UK). Positive and negative controls were performed in the presence and absence of CDK kinases, respectively. Half-maximal inhibition (IC50) values were calculated using a 4-parameter logistic non-linear regression model with Graphpad prism (Version 6.0). Apparent inhibition constants (Ki) values were calculated from Km (ATP) and IC50 values for the respective kinases.

[2] = target: CDK4/D1 (Homo sapiens, UniProt P11802); assay: ADP Glo Kinase assay CDK4/D1; assay type: biochemical; settings: CDK4D1; for remaining activity at 10 µM: compound at 10 μM, read-out: residual activity (%) at 10 μM CDK4D1; for Ki: read-out: CDK inhibition, Ki (μM) CDK4D1
Protocol: as §1

[3] = system: leukemia cell lines; assay: Resazurin cell viability assay on leukemia cell lines (72 h growth inhibition, GI50); assay type: cell-based; settings: Homo sapiens, MV4-11 cells
Protocol: Compounds from Example 1 were subjected to a standard MTT (3-(4,5-dimethylthiazol-2-yl)-2,5-diphenyltetrazolium bromide) and resazurin assays on solid tumour cell lines and leukemia cell lines, respectively, as previously reported (Wang S et al., J Med Chem 47:1662-1675, 2004 and Diab S. et al. CheMedChem 9:962-972, 2014). Compound concentrations required to inhibit 50% of cell growth (GI50) were calculated using non-linear regression analysis.

[4] = target: T1, CDKs and other kinases (Homo sapiens, UniProt P06493); assay: Radiometric kinase assay (Eurofins Pharma Discovery or Reaction Biology Corporation Kinase Profiler); assay type: biochemical; settings: CDK1B; for remaining activity at 10 µM: compound at 10 μM, read-out: residual activity (%) at 10 μM CDK1B; for Ki: read-out: CDK inhibition, Ki (μM) CDK1B
T1 construct: other: CDK1B; residual activity (%) at 10 μM CDK1B; compound at 10 μM
Protocol: as §1

[5] = target: T2, CDKs and other kinases (Homo sapiens, UniProt P50613); assay: as above; assay type: biochemical; settings: CDK7H; for remaining activity at 10 µM: compound at 10 μM, read-out: residual activity (%) at 10 μM CDK7H; for Ki: read-out: CDK inhibition, Ki (μM) CDK7H
T2 construct: other: CDK7H; residual activity (%) at 10 μM CDK7H; compound at 10 μM
Protocol: as §1

[6] = target: T3, CDKs and other kinases (Homo sapiens, UniProt P24941); assay: as above; assay type: biochemical; settings: CDK2A; for remaining activity at 10 µM: compound at 10 μM, read-out: residual activity (%) at 10 μM CDK2A; for Ki: read-out: CDK inhibition, Ki (μM) CDK2A
T3 construct: other: CDK2A; residual activity (%) at 10 μM CDK2A; compound at 10 μM
Protocol: as §1

CDK4/D1, sequence (P11802 whole entry): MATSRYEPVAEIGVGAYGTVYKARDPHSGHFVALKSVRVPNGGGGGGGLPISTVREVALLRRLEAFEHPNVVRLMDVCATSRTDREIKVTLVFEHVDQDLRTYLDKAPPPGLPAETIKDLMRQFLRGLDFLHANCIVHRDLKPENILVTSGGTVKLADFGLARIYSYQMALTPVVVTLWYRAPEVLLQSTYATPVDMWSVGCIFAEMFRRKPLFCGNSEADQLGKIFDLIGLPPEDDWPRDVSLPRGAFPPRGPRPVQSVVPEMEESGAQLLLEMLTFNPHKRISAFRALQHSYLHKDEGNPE
CDK4/D1, sequence (P24385 whole entry partner): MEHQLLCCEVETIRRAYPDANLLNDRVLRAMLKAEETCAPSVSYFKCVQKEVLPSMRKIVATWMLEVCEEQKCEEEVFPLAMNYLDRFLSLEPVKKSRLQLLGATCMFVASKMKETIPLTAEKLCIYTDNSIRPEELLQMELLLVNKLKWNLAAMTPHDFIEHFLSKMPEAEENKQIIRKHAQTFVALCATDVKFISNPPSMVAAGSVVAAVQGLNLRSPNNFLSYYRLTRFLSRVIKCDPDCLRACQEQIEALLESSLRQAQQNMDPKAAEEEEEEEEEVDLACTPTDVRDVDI
CDK9/T1, sequence (P50750 whole entry): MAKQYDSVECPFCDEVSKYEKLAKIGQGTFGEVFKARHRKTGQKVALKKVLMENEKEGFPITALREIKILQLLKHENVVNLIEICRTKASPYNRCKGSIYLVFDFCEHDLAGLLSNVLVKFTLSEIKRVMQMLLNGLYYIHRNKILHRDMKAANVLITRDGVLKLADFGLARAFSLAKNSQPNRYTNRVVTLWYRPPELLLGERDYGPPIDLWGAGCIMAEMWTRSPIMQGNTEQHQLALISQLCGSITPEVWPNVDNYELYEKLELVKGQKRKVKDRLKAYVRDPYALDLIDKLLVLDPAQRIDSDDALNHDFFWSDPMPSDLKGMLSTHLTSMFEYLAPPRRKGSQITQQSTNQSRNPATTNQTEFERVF
CDK9/T1, sequence (O60563 whole entry partner): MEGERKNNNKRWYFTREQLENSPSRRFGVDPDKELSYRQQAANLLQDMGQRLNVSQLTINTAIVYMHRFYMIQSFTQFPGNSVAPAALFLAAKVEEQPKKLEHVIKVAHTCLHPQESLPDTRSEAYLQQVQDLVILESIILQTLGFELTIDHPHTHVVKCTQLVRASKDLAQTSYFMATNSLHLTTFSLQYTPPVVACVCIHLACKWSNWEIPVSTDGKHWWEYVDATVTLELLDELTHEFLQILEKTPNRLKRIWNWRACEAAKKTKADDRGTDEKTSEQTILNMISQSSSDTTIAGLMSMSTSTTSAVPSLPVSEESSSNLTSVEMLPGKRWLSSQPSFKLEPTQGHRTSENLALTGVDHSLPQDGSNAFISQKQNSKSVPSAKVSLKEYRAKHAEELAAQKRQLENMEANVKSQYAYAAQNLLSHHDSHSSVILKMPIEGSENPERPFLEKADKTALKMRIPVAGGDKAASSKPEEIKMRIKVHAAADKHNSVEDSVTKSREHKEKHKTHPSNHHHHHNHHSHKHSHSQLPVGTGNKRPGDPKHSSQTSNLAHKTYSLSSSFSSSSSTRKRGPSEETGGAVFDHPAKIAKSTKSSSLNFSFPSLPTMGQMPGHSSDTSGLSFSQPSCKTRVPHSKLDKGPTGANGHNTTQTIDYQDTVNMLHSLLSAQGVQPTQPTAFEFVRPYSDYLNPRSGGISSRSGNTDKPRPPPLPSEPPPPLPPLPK
T2 sequence (P50613 whole entry): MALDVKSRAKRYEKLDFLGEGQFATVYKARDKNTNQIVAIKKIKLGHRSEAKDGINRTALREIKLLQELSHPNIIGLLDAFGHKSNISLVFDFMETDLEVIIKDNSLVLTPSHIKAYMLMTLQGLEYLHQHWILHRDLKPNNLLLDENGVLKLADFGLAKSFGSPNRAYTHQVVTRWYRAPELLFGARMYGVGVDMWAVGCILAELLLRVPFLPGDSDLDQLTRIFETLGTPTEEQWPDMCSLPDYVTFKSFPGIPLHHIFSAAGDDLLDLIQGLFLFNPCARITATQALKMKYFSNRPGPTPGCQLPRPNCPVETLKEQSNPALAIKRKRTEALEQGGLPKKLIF
T1 sequence (P06493 whole entry): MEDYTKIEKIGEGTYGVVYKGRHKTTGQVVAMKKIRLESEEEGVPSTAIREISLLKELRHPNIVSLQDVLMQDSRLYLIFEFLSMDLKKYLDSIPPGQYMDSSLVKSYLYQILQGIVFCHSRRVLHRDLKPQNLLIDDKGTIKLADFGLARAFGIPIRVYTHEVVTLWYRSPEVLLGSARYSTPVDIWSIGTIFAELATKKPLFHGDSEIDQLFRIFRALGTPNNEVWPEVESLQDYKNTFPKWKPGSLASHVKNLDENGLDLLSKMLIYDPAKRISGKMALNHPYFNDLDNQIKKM

Cc1cnc(N[C@H]2CC[C@H](N(CC(N)=O)CC(N)=O)CC2)nc1-c1cnc2ccc(Nc3cncnc3)cn12 [Compound 154, 2,2′-(((1r,4r)-4-((5-Methyl-4-(6-(pyrimidin-5-ylamino)imidazo[1,2-a]pyridin-3-yl)pyrimidin-2-yl)amino)cyclohexyl)azanediyl)diacetamide]
Ki [1]: 0.022 µM
remaining activity at 10 µM [2]: 3%
GI50 [3]: > 10 µM
remaining activity at 10 µM [4]: 14%
remaining activity at 10 µM [5]: 37%
remaining activity at 10 µM [6]: 7%

CS(=O)(=O)N1CCC(Nc2ncc(F)c(-c3cnc4ccc(-c5ccccc5)cn34)n2)CC1 [Compound 147, 5-Fluoro-N-(1-(methylsulfonyl)piperidin-4-yl)-4-(6-phenylimidazo[1,2-a]pyridin-3-yl)pyrimidin-2-amine]
Ki [1]: 0.711 µM
remaining activity at 10 µM [2]: 70%
GI50 [3]: 0.62 ± 0.26 µM
Ki [4]: 0.334 µM
remaining activity at 10 µM [5]: 54%
Ki [6]: 0.015 µM

CCN[C@H]1CC[C@@H](Nc2ncc(C)c(-c3cnc4ccc(-c5ccccc5)cn34)n2)CC1 [Compound 132, (1s,4s)-N^1-ethyl-N^4-(5-Methyl-4-(6-phenylimidazo[1,2-a]pyridin-3-yl)pyrimidin-2-yl)cyclohexane-1,4-diamine]
Ki [1]: 1.12 µM
remaining activity at 10 µM [2]: 16%
GI50 [3]: 0.012 ± 0.008 µM
remaining activity at 10 µM [4]: 25%
remaining activity at 10 µM [5]: 40%
remaining activity at 10 µM [6]: 23%

CN1CCC(Nc2ncc(F)c(-c3cnc4ccc(-c5ccc(S(=O)(=O)N(C)C)cc5)cn34)n2)CC1 [Compound 148, 4-(3-(5-Fluoro-2-((1-methylpiperidin-4-yl)amino)pyrimidin-4-yl)imidazo[1,2-a]pyridin-6-yl)-N,N-dimethylbenzenesulfonamide]
Ki [1]: 0.261 µM
remaining activity at 10 µM [2]: 70%
GI50 [3]: 0.023 ± 0.007 µM
remaining activity at 10 µM [4]: 27%
remaining activity at 10 µM [5]: 18%
remaining activity at 10 µM [6]: 46%

Cc1cnc(NC2CCC(N(C)C)CC2)nc1-c1cnc2ccc(Nc3cncc(F)c3)cn12 (stereo not shown) [Compound 120, N^1-(4-(6-((5-Fluoropyridin-3-yl)amino)imidazo[1,2-a]pyridin-3-yl)-5-methylpyrimidin-2-yl)-N^4,N^4-dimethylcyclohexane-1,4-diamine]
Ki [1]: 0.015 µM
Ki [2]: 0.87 µM
GI50 [3]: 0.023 ± 0.01 µM
remaining activity at 10 µM [4]: 31%
remaining activity at 10 µM [5]: 29%
remaining activity at 10 µM [6]: 4%

CN1CCC(Nc2ncc(F)c(-c3cnc4ccccn34)n2)CC1 [Compound 19, 5-Fluoro-4-(imidazo[1,2-a]pyridin-3-yl)-N-(1-methylpiperidin-4-yl)pyrimidin-2-amine]
Ki [1]: 0.078 µM
Ki [2]: 0.004 µM
GI50 [3]: 0.084 ± 0.008 µM
Ki [4]: 0.795 µM
Ki [5]: 0.27 µM
Ki [6]: 0.527 µM

Cc1cnc(N[C@H]2CC[C@H](N3CCCC3)CC2)nc1-c1cnc2ccc(-c3ccccc3)cn12 [Compound 140, 5-Methyl-4-(6-phenylimidazo[1,2-a]pyridin-3-yl)-N-((1r,4r)-4-(pyrrolidin-1-yl)cyclohexyl)pyrimidin-2-amine]
Ki [1]: 0.53 µM
remaining activity at 10 µM [2]: 65%
GI50 [3]: 0.242 ± 0.132 µM
remaining activity at 10 µM [4]: 39%
Ki [5]: 0.597 µM
remaining activity at 10 µM [6]: 61%

Cc1cnc(N2CCC3(CCNC3=O)CC2)nc1-c1cnc2ccccn12 [Compound 124, 8-(4-(Imidazo[1,2-a]pyridin-3-yl)-5-methylpyrimidin-2-yl)-2,8-diazaspiro[4.5]decan-1-one]
Ki [1]: > 5 µM
GI50 [3]: > 5 µM
remaining activity at 10 µM [4]: 87%
remaining activity at 10 µM [5]: 91%
remaining activity at 10 µM [6]: 34%

CN1CCC(N[C@H]2CC[C@H](Nc3ncc(F)c(-c4cnc5ccc(-c6ccccc6)cn45)n3)CC2)CC1 [Compound 160, (1r,4r)-N^1-(5-Fluoro-4-(6-phenylimidazo[1,2-a]pyridin-3-yl)pyrimidin-2-yl)-N^4-(1-methylpiperidin-4-yl) cyclohexane-1,4-diamine]
Ki [1]: 0.014 µM
remaining activity at 10 µM [2]: 0%
remaining activity at 10 µM [4]: 3%
Ki [5]: 0.099 µM
remaining activity at 10 µM [6]: 7%
